The values that follow come from patent EP0900210B1, “ANTIVIRALLY ACTIVE HETEROCYCLIC AZAHEXANE DERIVATIVES” (Novartis AG, priority 1996, dated 1997).

Series [1] concerns the target T1, HIV-1-protease (Human immunodeficiency virus type 1 group M subtype B, UniProt P04585).
T1 construct: made in house
Nature of the series: Inhibition of HIV-1-protease with icosapeptide substrate […] (HPLC). The format is biochemical. On the procedure: The inhibitory action of the compounds of formula I on the proteolytic activity of HIV-1-protease can be shown, for example, according to known procedures (see A. D. Richards et al., J. Biol. Chem. 265(14), 7733-7736 (1990)). In that method the inhibition of the action of HIV-1-protease (preparation: see S. Billich et al., J. Biol. Chem. 263(34), 17905-17908 (1990)) is measured in the presence of the icosapeptide […] (a synthetic substrate of HIV-1-protease, prepared by peptide synthesis in accordance with known procedures (see J. Schneider et al., Cell 54, 363-368 (1988)), which contains as substrate analogue one of the cleavage sites of the gag-precursor protein (natural substrate of HIV-1-protease). That substrate and its cleavage products are analysed by high performance liquid chromatography (HPLC).
The test compound is dissolved in dimethyl sulfoxide. The enzymatic test is carried out by adding suitable dilutions of the inhibitor in 20 mM β-morpholinoethanesulfonic acid (MES) buffer pH 6.0 to the test mixture. That mixture consists of the above-mentioned icosapeptide (122 µM) in 20 mM MES-buffer pH 6.0. 100 µl are used per test batch. The reaction is started by the addition of […] of HIV-1-protease solution and is stopped after one hour's incubation at 37°C by the addition of 10 µl of 0.3M HClO4. After centrifugation of the sample at 10 000 x g for 5 minutes, 20 µl of the resulting supernatant are applied to a 125 x 4.6 mm Nucleosil® C18-5m-HPLC column (reversed-phase material supplied by Macherey & Nagel, Düren, FRG, based on silica gel that has been charged with C18alkyl chains). The uncleaved icosapeptide and its cleavage products are eluted from the column by means of the following gradient: 100 % eluant 1 → 50 % eluant 1 + 50 % eluant 2 (eluant 1: 10 % acetonitrile, 90 % H2O, 0.1 % trifluoroacetic acid (TFA); eluant 2: 75 % acetonitrile, 25 % H2O, 0.08 % TFA) for 15 minutes, throughflow rate 1 ml/min. The quantification of the eluted peptide fragments is carried out by measuring the peak height of the cleavage product at 215 nm.
Using the test system described above with the icosapeptide […], the IC50 values given below are obtained for the following Examples: […]

In series [2] the test system is 451/76F strain. To be noted: 451/76F strain established against Lasinavir; comparison with saquinavir, indinavir, ritonavir. The source says:
(§1) By way of PCR-supported mutagenesis and cloning, HIV-1 protease mutants are generated that are based on the infectious clone pNL4-3 (freely available via the "NIH AIDS reference and reagent program", the original reference is A. Adachi et al. J. Virol (1986) 59, 284-91 - but it can, of course, be any other HIV clone, or even clinical material, provided that comparability is ensured). […] The cloned fragments are, for example, only 500 base pairs in length, all of the remainder being unchanged. By using mutations in always the same clone, direct comparability is ensured, which would not be the case in a direct comparison of clinical samples or of different HIV clones. […] That system is used as a transient DNA transfection system for tests: • 1) in order to identify possible cross-resistances of protease variants to several protease inhibitors; and • 2) in order to establish the potency and resistance profile of novel inhibitor candidates.
(§2) Instead of the strains mentioned, there may be used any human T4-positive cells, such as the HeLa T4 cells, deposited under that name by Richard Axel and Paul Maddon in "NIH AIDS reference and reagent program" and obtainable via that source.

The subject of series [3] is HIV-1/MN. Description: Protection of MT-2 cells against HIV infection (reverse transcriptase activity in supernatant). The format is cell-based. To be noted: Human immunodeficiency virus 1, MT2, 96 h; read-out: ED90 (the source's name).
Procedure: For this test, MT-2-cells infected with HIV-1/MN are used. MT-2-cells have been transformed with HTLV-1 (a virus causing leukaemia) and a continuous producer thereof; they are therefore especially sensitive to the cytopathogenic effect of HIV. MT-2-cells can be obtained via the AIDS Research and Reference Reagent Program, Division of AIDS, NIAID, NIH from Dr. Douglas Richman (see J. Biol. Chem. 263, 5870-5875 (1988) and also Science 229, 563-566 1985)). The MT-2-cells are cultured in RPMI 1640-medium (Gibco, Scotland; RPMI comprises an amino acid mixture without glutamine) supplemented with 10% heat-inactivated foetal calf serum, glutamine and standard antibiotics. In all cases the cells, and also the virus stock solution used for the infection (HIV-1/MN), are free of mycoplasms. […] The titre of the HIV-1/MN virus stock solution (determined by titration onto MT-2-cells) is 4.2 x 10^5 TCID50/ml (TCID50 = Tissue Culture Infective Dose = dose that infects 50 % of the MT-2-cells). […] Prior to the test, 0.1 % (v/v) [alpha-^32P]dTTP is added to aliquots of the solution in order to establish a radioactivity of 10 µCi/ml.
After mixing, the plate is incubated for 2 hours at 37°C. […] The radioactivity on the filters is measured in a Matrix Packard 96-well counter (Packard, Zürich, Switzerland). […]
Series [4] concerns HIV-1 (infectious clone pNL4-3). Nature of the series: Transient DNA transfection assay in HeLaT4 cells, in vitro potency. The format is cell-based. The conditions noted are these: Human immunodeficiency virus 1, HeLaT4.
From the text: as §1, §2

In series [5] the test system is 46I/47V/50V (VX478). Description: Transient DNA transfection assay in HeLaT4 cells, other resistant strains. The format is cell-based, HIV-1. To be noted: 10nM; strains e.g. 46I/47V/50V (VX478); not quantified.
From the text: as §1, §2

Series [6] is described as follows: Pharmacokinetics: plasma level in mice after oral administration. The series is classed as in vivo, female BALB/c mice. The conditions noted are these: mouse, oral administration of 120 mg/kg. Here is the method: The blood is centrifuged (12 000 x g, 5 min) and the plasma removed.
The flow rate is 1 ml/min.

Setting [7] is: icosapeptide […] 122 µM, 20 mM MES pH 6.0, one hour at 37°C, read-out: IC50.

As a reminder, the IC50 is the midpoint of a concentration-inhibition curve. As a reminder, the IC90 is the point of the concentration-response curve where the effect stands at 90%. Lower therefore signals an effect from little substance.

Like-named read-outs stand apart in the source and are kept apart here. Bounds are passed on as bounds.

Regarding `CC[C@H](C)[C@H](NC(=O)OC)C(=O)NN(Cc1ccc(-c2cnccn2)cc1)C[C@H](O)[C@H](Cc1ccccc1)NC(=O)[C@@H](NC(=O)OC)C(C)C` [Example 41, 1-[4-(Pyrazin-2-yl)-phenyl]-4(S)-hydroxy-2-[N-(N-methoxycarbonyl-(L)-iso-leucyl)amino]-5(S)-[N-(N-methoxycarbonyl-(L)-valyl)amino]-6-phenyl-2-azahexane], the IC50 in series [1] (setting [7]) is 32 nM. Still for that read-out and setting: the figure for `COC(=O)N[C@H](C(=O)N[C@@H](Cc1ccccc1)[C@@H](O)CN(Cc1ccc(-c2cnccn2)cc1)NC(=O)[C@@H](NC(=O)OC)C(C)(C)C)C(C)C` [Example 42, 1-[4-(Pyrazin-2-yl)-phenyl]-4(S)-hydroxy-2-[N-(N-methoxycarbonyl-(L)-tert-leucyl)amino]-5(S)-[N-(N-methoxycarbonyl-(L)-valyl)amino]-6-phenyl-2-azahexane] is 15 nM; for `CC[C@H](C)[C@H](NC(=O)OC)C(=O)N[C@@H](Cc1ccccc1)[C@@H](O)CN(Cc1ccc(-c2cnccn2)cc1)NC(=O)[C@@H](NC(=O)OC)[C@@H](C)CC` [Example 43, 1-[4-(Pyrazin-2-yl)-phenyl]-4(S)-hydroxy-5(S)-2,5-bis[N-(N-methoxycarbonyl-(L)-iso-leucyl)amino]-6-phenyl-2-azahexane] it is 37 nM. The same measure, in the same setting: then `COC(=O)N[C@H](C(=O)N[C@@H](Cc1ccccc1)[C@@H](O)CN(Cc1ccc(-c2cccs2)cc1)NC(=O)[C@@H](NC(=O)OC)C(C)C)C(C)C` [Example 45, 1-[4-(Thiophen-2-yl)-phenyl]-4(S)-hydroxy-5(S)-2,5-bis[N-(N-methoxycarbonyl-(L)-valyl)amino]-6-phenyl-2-azahexane], with 12 nM. As for `COC(=O)N[C@H](C(=O)N[C@@H](Cc1ccccc1)[C@@H](O)CN(Cc1ccc(-c2ccccn2)cc1)NC(=O)[C@@H](NC(=O)OC)C(C)(C)C)C(C)(C)C` [Example 46, 1-[4-(Pyridin-2-yl)-phenyl]-4(S)-hydroxy-5(S)-2,5-bis[N-(N-methoxycarbonyl-(L)-tert-leucyl)amino]-6-phenyl-2-azahexane], the “activity against a resistant variant” value in series [2] is “comparable with saquinavir and better than that of indinavir”. For the same molecule, the IC50 in series [1] (setting [7]) amounted to 26 nM. Moreover, the EC90 in series [3] stood at 3 nM. Besides, the IC90 in series [4] was less than 30 nM. For the same molecule, the “activity compared with other strains” value in series [5] was “more potent (not quantified) than that of saquinavir, ritonavir and indinavir”. In series [6] (30 min after administration), this molecule displayed a concentration at 0.5 h of 21.8 µM. Further, the concentration at 1.5 h in series [6] (90 min after administration) amounted to 31.8 µM. `CC[C@H](C)[C@H](NC(=O)OC)C(=O)N[C@@H](Cc1ccccc1)[C@@H](O)CN(Cc1ccc(-c2ccccn2)cc1)NC(=O)[C@@H](NC(=O)OC)[C@@H](C)CC` [Example 47, [4-(Pyridin-2-yl)-phenyl]-4(S)-hydroxy-5(S)-2,5-bis[N-(N-methoxycarbonyl-(L)-iso-leucyl)amino]-6-phenyl-2-azahexane]: the IC50 in series [1] (setting [7]) was 40 nM. Same read-out and setting: then `COC(=O)N[C@H](C(=O)NN(Cc1ccc(-c2ccccn2)cc1)C[C@H](O)[C@H](Cc1ccccc1)NC(=O)[C@@H](NC(=O)OC)C(C)(C)C)C(C)C` [Example 48, 1-[4-(Pyridin-2-yl)-phenyl]-4(S)-hydroxy-2-N-(N-methoxy-carbonyl-(L)-valyl)amino-5(S)-N-(N-methoxycarbonyl-(L)-tert-leucyl)amino-6-phenyl-2-azahexane], with 31 nM. The molecule `COC(=O)N[C@H](C(=O)N[C@@H](Cc1ccccc1)[C@@H](O)CN(Cc1ccc(-c2ccccn2)cc1)NC(=O)[C@@H](NC(=O)OC)C(C)(C)C)C(C)C` [Example 49, 1-[4-(Pyridin-2-yl)-phenyl]-4(S)-hydroxy-2-N-(N-methoxy-carbonyl-(L)-tert-leucyl)amino-5(S)-N-(N-methoxycarbonyl-(L)-valyl)amino-6-phenyl-2-azahexane] showed an IC50 in series [1] of 20 nM. The same measure, in the same setting: the figure for `CC[C@H](C)[C@H](NC(=O)OC)C(=O)N[C@@H](Cc1ccccc1)[C@@H](O)CN(Cc1ccc(-c2ccccn2)cc1)NC(=O)[C@@H](NC(=O)OC)C(C)C` [Example 50, 1-[4-(Pyridin-2-yl)-phenyl]-4(S)-hydroxy-2-N-(N-methoxy-carbonyl-(L)-valyl)amino-5(S)-N-(N-methoxycarbonyl-(L)-iso-leucyl)amino-6-phenyl-2-azahexane] is 28 nM.

Molecule `CC[C@H](C)[C@H](NC(=O)OC)C(=O)NN(Cc1ccc(-c2ccccn2)cc1)C[C@H](O)[C@H](Cc1ccccc1)NC(=O)[C@@H](NC(=O)OC)C(C)C` [Example 51, 1-[4-(Pyridin-2-yl)-phenyl]-4(S)-hydroxy-2-N-(N-methoxy-carbonyl-(L)-iso-leucyl)amino-5(S)-N-(N-methoxycarbonyl-(L)-valyl)amino-6-phenyl-2-azahexane] displayed an IC50 in series [1] of 34 nM. As to `CCOC(=O)N[C@H](C(=O)NN(Cc1ccc(-c2ccccn2)cc1)C[C@H](O)[C@H](Cc1ccccc1)NC(=O)[C@@H](NC(=O)OC)C(C)C)C(C)C` [Example 52, 1-[4-(Pyridin-2-yl)-phenyl]-4(S)-hydroxy-2-N-(N-ethoxy-carbonyl-(L)-valyl)-amino-5(S)-N-(N-methoxycarbonyl-(L)-valyl)amino-6-phenyl-2-azahexane], the IC50 in series [1] (setting [7]) came to 34 nM.
